Where a name gives a salt, the structure may show the parent alone.
system: RSV Long strain; assay: Viral cytopathic effect (CPE) assay, anti-RSV activity; assay type: cell-based, Respiratory Syncytial Virus; conditions: human respiratory syncytial virus, 144 h, RSV Long strain (ATCC); cell viability after 6 days, Cell Counting kit-8
Summary of the method: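 Cells (6×10^3/well, DMEM with 10% FBS) were infected next day with RSV Long strain, at a dose giving approximately 80–90% CPE, alongside serial half-log compound dilutions. Viability was read after 6 days by CCK-8 absorbance at 450 nm (reference 630 nm), and EC50 was derived from it.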

Row | SMILES | EC50
1 | Cc1ccc2nc(N3CCS(=O)(=O)c4ccccc4C3)cc(NC(=O)N(C)C)c2c1 [Example 3-63, 3-[2-(1,1-Dioxido-2,3-dihydro-1,4-benzothiazepin-4(5H)-yl)-6-methylquinolin-4-yl]-1,1-dimethylurea] | 9.9 µM
2 | Cc1ccc2nc(N3CC[S+]([O-])c4ccccc4C3)nc(NC3(CN)COC3)c2c1 (centres unmarked) [Example 91, N-[3-(Aminomethyl)oxetan-3-yl]-6-methyl-2-(1-oxido-2,3-dihydro-1,4-benzothiazepin-4(5H)-yl)quinazolin-4-amine] | 0.004 µM
3 | Cc1ccc2nc(N3CCS(=O)(=O)c4ccccc4C3)cc(NC(=O)[C@H](C)N)c2c1 [Example 40-3, N-[2-(1,1-Dioxido-2,3-dihydro-1,4-benzothiazepin-4(5H)-yl)-6-methylquinolin-4-yl]alaninamide] | 0.917 µM
4 | NC1CCN(c2cc(N3CCS(=O)(=O)c4ccccc4C3)nc3ccncc23)C1 (centres unmarked) [Example 9-28, 1-[2-(1,1-Dioxido-2,3-dihydro-1,4-benzothiazepin-4(5H)-yl)-1,6-naphthyridin-4-yl]pyrrolidin-3-amine] | 0.003 µM
5 | NCC1(CNc2cc(N3CCS(=O)(=O)c4ccccc4C3)nc3ccc(CO)cc23)COC1 [Example 106, [4-({[3-(Aminomethyl)oxetan-3-yl]methyl}amino)-2-(1,1-dioxido-2,3-dihydro-1,4-benzothiazepin-4(5H)-yl)quinolin-6-yl]methanol] | 0.002 µM
6 | NCC(O)CNc1cc(N2CCCc3ccccc3C2)nc2ccccc12 (centres unmarked) [Example 118-8, 1-Amino-3-{[2-(1,3,4,5-tetrahydro-2H-2-benzazepin-2-yl)quinolin-4-yl]amino}propan-2-ol trifluoroacetate (salt)] | 0.223 µM
7 | Cc1ccc2nc(N3CCS(=O)(=O)c4ccccc4C3)cc(NC3CNCC3F)c2c1 (stereo not drawn) [Example 28-1, 2-(1,1-Dioxido-2,3-dihydro-1,4-benzothiazepin-4(5H)-yl)-N-trans-(4-fluoropyrrolidin-3-yl)-6-methylquinolin-4-amine] | 0.007 µM
8 | C#Cc1ccc2nc(N3CCS(=O)(=O)c4ccccc4C3)cc(NCCCN)c2c1 [Example 54, N-[2-(1,1-Dioxido-2,3-dihydro-1,4-benzothiazepin-4(5H)-yl)-6-ethynylquinolin-4-yl]propane-1,3-diamine] | 4.8 µM
9 | Cc1ccc2nc(N3CC[S+]([O-])c4ccccc4C3)cc(N[C@@H]3CNC[C@H]3F)c2c1 (relative stereo) [Example 28-5, N-[trans-4-Fluoropyrrolidin-3-yl]-6-methyl-2-(1-oxido-2,3-dihydro-1,4-benzothiazepin-4(5H)-yl)quinolin-4-amine] | 0.003 µM
10 | Cc1ccc2nc(N3CCS(=O)(=O)c4ccccc4C3)cc(Nc3ccon3)c2c1 [Example 3-64, 2-(1,1-Dioxido-2,3-dihydro-1,4-benzothiazepin-4(5H)-yl)-6-methyl-N-(1,2-oxazol-3-yl)quinolin-4-amine] | 0.874 µM
11 | Cc1ccc2nc(N3CCS(=O)(=O)c4ccccc4C3)cc(N(C)C)c2c1 [Example 16-2, 2-(1,1-Dioxido-2,3-dihydro-1,4-benzothiazepin-4(5H)-yl)-N,N,6-trimethylquinolin-4-amine] | 9.64 µM
12 | Cc1ccc2nc(N3CCS(=O)(=O)c4ccccc4C3)cc(NCCCCCN)c2c1 [Example 3-55, N-[2-(1,1-Dioxido-2,3-dihydro-1,4-benzothiazepin-4(5H)-yl)-6-methylquinolin-4-yl]pentane-1,5-diamine] | 0.027 µM
13 | NCCNc1cc(N2CCCc3ccccc3C2)nc2ccc(Br)cc12 [Example 118-10, N-[6-Bromo-2-(1,3,4,5-tetrahydro-2H-2-benzazepin-2-yl)quinolin-4-yl]ethane-1,2-diamine] | 0.289 µM
14 | Cc1ccc2nc(N3CCS(=O)(=O)c4ccccc4C3)cc(NC[C@H](O)CO)c2c1 [Example 3-10, (2S)-3-{[2-(1,1-Dioxido-2,3-dihydro-1,4-benzothiazepin-4(5H)-yl)-6-methylquinolin-4-yl]amino}propane-1,2-diol] | 0.053 µM

— US8871756B2 (Hoffmann-La Roche Inc., priority 2011, dated 2014)
